The test system of assay [1] is mouse breast cancer cell line 4T1. The following applies: 4T1-implanted BALB/cAJcl mouse; oral daily 14 days, 15 and 30 mg/kg/day; Day 15.
Method: On the day following the final administration (Day 15), lymphocyte fractions were isolated from the tumor, spleen, and peripheral blood, and myeloid-derived suppressor cells (MDSCs) (CD11b^+/Gr-1^+ cells), CD4-positive T cells, and CD8-positive T cells were measured using a cell sorter.
Assay [2] relates to urothelial cancer. The following applies: cited from earlier work.

As to `C=CC(=O)N1CC[C@H](n2nc(C#Cc3cc(OC)cc(OC)c3)c3c(N)ncnc32)C1` [compound 1, (S)-1-(3-(4-amino-3-((3,5-dimethoxyphenyl)ethynyl)-1H-pyrazolo[3,4-d]pyrimidin-1-yl)pyrrolidin-1-yl)prop-2-en-1-one], in assay [1], the “CD4-positive T cells in the peripheral blood lymphocyte fractions compared with the control” value is on record as “tended to increase in a dose-dependent manner”, the “CD8-positive T cells in the peripheral blood lymphocyte fractions compared with the control” value is given as “tended to increase in a dose-dependent manner”, the “CD8-positive T cells in the spleen lymphocyte fractions compared with the control” value is recorded as “tended to increase in a dose-dependent manner” and the “MDSCs in the peripheral blood lymphocyte fractions compared with the control” value is recorded as “tended to decrease in a dose-dependent manner”.

B1: vofatamab: an anti-FGFR3 antibody (antibody, chains of the INN, looked up, V domains shown)
VH: EVQLVESGGGLVQPGGSLRLSCAASGFTFTSTGISWVRQAPGKGLEWVGRIYPTSGSTNYADSVKGRFTISADTSKNTAYLQMNSLRAEDTAVYYCARTYGIYDLYVDYTEYVMDYWGQGTLVTVSS
VL: DIQMTQSPSSLSASVGDRVTITCRASQDVDTSLAWYKQKPGKAPKLLIYSASFLYSGVPSRFSGSGSGTDFTLTISSLQPEDFATYYCQQSTGHPQTFGQGTKVEIK
As to B1, the “Response by combined use with pembrolizumab” value in assay [2] (urothelial cancer patients without FGFR genetic aberration, combined with pembrolizumab) is given as “response by combined use with pembrolizumab is observed”. Further, in assay [2] (urothelial cancer patients), the “Sensitivity state of the cancer to immune checkpoint inhibitors” value is recorded as “change from a “cold” state (low sensitivity to immune checkpoint inhibitors) to a “hot” state (high sensitivity to immune checkpoint inhibitors)”.

The values are drawn from patent US20220184082A1, “CANCER THERAPY USING 3,5-DISUBSTITUTED BENZENE ALKYNYL COMPOUND AND PEMBROLIZUMAB” (TAIHO PHARMACEUTICAL CO., LTD., priority 2019, published 2022).
